# Source: PubChem BioAssay (NCI)
#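 These data come from cells grown in 96-well plates and exposed to compound for 48 hours at five concentrations. GI50: concentration for 50% inhibition of growth. At the TGI there is no net growth.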
# Columns and labels:
# Test in all cases: NCI tumour cell line growth inhibition, 48 h
# HOP-92 NSCLC = test system: HOP-92 NSCLC
# RXF 393 renal = test system: RXF 393 renal
# DLD-1 colon = test system: DLD-1 colon
# SW-620 colon = test system: SW-620 colon
# ACHN renal = test system: ACHN renal
# SNB-19 CNS = test system: SNB-19 CNS
# OVCAR-5 ovarian = test system: OVCAR-5 ovarian
# MOLT-4 leukemia = test system: MOLT-4 leukemia
# LXFL 529 NSCLC = test system: LXFL 529 NSCLC
# LOX IMVI melanoma = test system: LOX IMVI melanoma
smiles,measurement,setting,value
CCCCN(CCCC)CC(C(=O)Nc1ccc([N+](=O)[O-])cc1[N+](=O)[O-])/C(C)=N\NC(=O)c1ccncc1 (stereo not given),TGI,HOP-92 NSCLC,> 100 µM
same,TGI,RXF 393 renal,> 100 µM
same,TGI,DLD-1 colon,> 100 µM
same,TGI,SW-620 colon,> 100 µM
same,TGI,ACHN renal,> 100 µM
same,TGI,SNB-19 CNS,> 100 µM
same,TGI,OVCAR-5 ovarian,> 100 µM
same,TGI,MOLT-4 leukemia,> 100 µM
same,TGI,LXFL 529 NSCLC,> 100 µM
same,TGI,LOX IMVI melanoma,> 100 µM
CS(=O)(=O)ON1C(=O)c2ccc(N)cc2C1=O,TGI,HOP-92 NSCLC,> 100 µM
same,TGI,RXF 393 renal,> 71 µM
same,TGI,DLD-1 colon,> 100 µM
same,TGI,SW-620 colon,> 100 µM
same,TGI,ACHN renal,> 100 µM
same,TGI,SNB-19 CNS,> 100 µM
same,TGI,OVCAR-5 ovarian,> 100 µM
same,TGI,MOLT-4 leukemia,> 69.3 µM
same,TGI,LXFL 529 NSCLC,> 100 µM
same,TGI,LOX IMVI melanoma,> 100 µM
C/C(=C\CNc1ncnc2c1ncn2C1CCCCO1)COP(=O)(O)O (stereo not given),TGI,HOP-92 NSCLC,> 100 µM
same,TGI,RXF 393 renal,> 100 µM
same,TGI,DLD-1 colon,> 100 µM
same,TGI,SW-620 colon,> 100 µM
same,TGI,ACHN renal,> 100 µM
same,TGI,SNB-19 CNS,> 100 µM
same,TGI,OVCAR-5 ovarian,> 100 µM
same,TGI,MOLT-4 leukemia,> 100 µM
same,TGI,LXFL 529 NSCLC,> 100 µM
same,TGI,LOX IMVI melanoma,> 100 µM
[pH]1p2[pH]p3p1p3[pH]2.c1cc[c]([Ge]([c]2ccccc2)[c]2ccccc2)cc1.c1cc[c]([Ge]([c]2ccccc2)[c]2ccccc2)cc1.c1cc[c]([Ge]([c]2ccccc2)[c]2ccccc2)cc1,GI50,HOP-92 NSCLC,12.8 µM
same,TGI,HOP-92 NSCLC,29.8 µM
same,GI50,RXF 393 renal,64.9 µM
same,TGI,RXF 393 renal,> 100 µM
same,GI50,DLD-1 colon,14.8 µM
same,TGI,DLD-1 colon,29.5 µM
same,GI50,SW-620 colon,16.3 µM
same,TGI,SW-620 colon,29.9 µM
same,GI50,ACHN renal,16.9 µM
same,TGI,ACHN renal,36.2 µM
same,GI50,SNB-19 CNS,14.1 µM
same,TGI,SNB-19 CNS,27.2 µM
same,GI50,OVCAR-5 ovarian,18.2 µM
same,TGI,OVCAR-5 ovarian,34.1 µM
same,GI50,MOLT-4 leukemia,16.3 µM
same,TGI,MOLT-4 leukemia,> 100 µM
same,GI50,LXFL 529 NSCLC,11.6 µM
same,TGI,LXFL 529 NSCLC,24.3 µM
same,GI50,LOX IMVI melanoma,14.4 µM
same,TGI,LOX IMVI melanoma,30.4 µM
